Like-named read-outs stand apart in the source and are kept apart here.
Target: T1, G protein-coupled receptor 119 (GPR-119) (Mesocricetus auratus, UniProt A0A1U8CD06)
T1 construct: hamster-derived β-cells containing G protein-coupled receptor 119 (GPR-119), HIT-T15 cells; host or cells: HIT-T15 (hamster pancreatic β-cells)
T1 sequence (A0A1U8CD06 1-334): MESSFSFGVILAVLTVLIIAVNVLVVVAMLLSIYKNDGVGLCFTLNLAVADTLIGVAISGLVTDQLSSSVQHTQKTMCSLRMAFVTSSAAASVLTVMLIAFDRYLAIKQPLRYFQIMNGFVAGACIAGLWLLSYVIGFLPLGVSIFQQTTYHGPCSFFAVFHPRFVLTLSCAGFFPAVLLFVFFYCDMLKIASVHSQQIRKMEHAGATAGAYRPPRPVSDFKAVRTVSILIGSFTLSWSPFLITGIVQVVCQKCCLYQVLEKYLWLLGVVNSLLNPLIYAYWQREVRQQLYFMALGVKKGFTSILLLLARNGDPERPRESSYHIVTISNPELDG
Test: cAMP activity in HIT-T15 cells (cAMP dynamic kit, FRET)
Format: cell-based, hamster
Description: To check whether the cyclohexene derivatives according to the present invention activate cyclic adenosine monophosphate (cAMP), experiments were carried out, as follows.
The HIT-T15 cells were plated on a 96-well plate at 60,000 cells per well. On the next day of plating, the cells were treated with a varying concentration of each of the example compounds according to the present invention, and incubated at 37° C. for an hour. In this case, each of the treated compounds was used at six concentrations, ranging from 0.0032 to 10 μM, to treat the cells.
The cyclic adenosine monophosphate (cAMP) activity was measured according to the manufacturer's instruction using a cAMP dynamic kit commercially available from Cis Bio Inc. (Bedford, Mass.). The cells were lysed, and a level of cAMP was determined by a competitive immunoassay using D2-labeled cAMP and a cryptate-labeled anti-cAMP antibody. Fluorescence was read in Flex Station (Molecular Devices). […] Unlabeled cAMP in the cell lysate competed with the D2-labeled cAMP against the cryptate-labeled antibody. Since a decrease in the measured intensity of the FRET signals represents a level of cAMP in the cells, the cAMP activities of the compounds are calculated as a change in FRET signals by adjusting an amount of dimethyl sulfoxide (DMSO).

[1] = 1 hour at 37° C., six concentrations 0.0032 to 10 μM, read-out: EC50
[2] = EC50 (nM), 1 hour at 37° C., six concentrations 0.0032 to 10 μM

Row | SMILES | EC50 (Table 2, read-out: EC50 value) | EC50 [1] | EC50 [2] | EC50 (EC50 value, Table 2)
1 | CCc1cnc(N2CCC(COc3ccc(C4=CCC(C(=O)N5CCC(=NO)CC5)CC4)cc3)CC2)nc1 (stereo not drawn) [Example 277, (4-(4-((1-(5-ethylpyrimidin-2-yl)piperidin-4-yl)methoxy)phenyl)cyclohex-3-enyl)(4-(hydroxyimino)piperidin-1-yl)methanone] | ≤ 50 nM |  |  | 
2 | CCc1cnc(N2CCC(COc3ccc(C4=CCC(C(=O)N5CCCCC5)CC4)cc3F)CC2)nc1 (stereo not drawn) [Example 292, (4-(4-((1-(5-ethylpyrimidin-2-yl)piperidin-4-yl)methoxy)-3-fluorophenyl)cyclohex-3-enyl)(piperidin-1-yl)methanone] | ≤ 50 nM | 12 nM |  | 
3 | CCc1cnc(N2CCC(COc3ccc(C4=CCC(C(=O)N5CCCC5)CC4)cc3F)CC2)nc1 (stereo not drawn) [Example 293, (4-(4-((1-(5-ethylpyrimidin-2-yl)piperidin-4-yl)methoxy)-3-fluorophenyl)cyclohex-3-enyl)(pyrrolidin-1-yl)methanone] | ≤ 50 nM | 18 nM |  | 
4 | CCc1cnc(N2CCC(COc3ccc(C4=CCC(C(=O)N5CCC(O)CC5)CC4)cc3F)CC2)nc1 (stereo not drawn) [Example 294, (4-(4-((1-(5-ethylpyrimidin-2-yl)piperidin-4-yl)methoxy)-3-fluorophenyl)cyclohex-3-enyl)(4-hydroxypiperidin-1-yl)methanone] | ≤ 50 nM | 23 nM |  | 
5 | CCc1cnc(N2CCC(COc3ccc(C4=CCC(C(=O)N5CC(=O)C5)CC4)cc3F)CC2)nc1 (stereo not drawn) [Example 295, 1-(4-(4-((1-(5-ethylpyrimidin-2-yl)piperidin-4-yl)methoxy)-3-fluorophenyl)cyclohex-3-enecarbonyl)azetidin-3-one] | ≤ 50 nM | 43 nM |  | 
6 | CCc1cnc(N2CCC(COc3ccc(C4=CCC(C(=O)N5CCC(CCO)CC5)CC4)cc3F)CC2)nc1 (stereo not drawn) [Example 296, (4-(4-((1-(5-ethylpyrimidin-2-yl)piperidin-4-yl)methoxy)-3-fluorophenyl)cyclohex-3-enyl)(4-(2-hydroxyethyl)piperidin-1-yl)methanone] | ≤ 50 nM | 6.8 nM |  | 
7 | CCc1cnc(N2CCC(COc3ccc(C4=CCC(C(=O)N5CCC(N6CCCCC6)CC5)CC4)cc3F)CC2)nc1 (stereo not drawn) [Example 297, 1,4′-bipiperidin-1′-yl(4-(4-((1-(5-ethylpyrimidin-2-yl)piperidin-4-yl)methoxy)-3-fluorophenyl)cyclohex-3-enyl)methanone] |  | 120 nM |  | 
8 | CCc1cnc(N2CCC(COc3ccc(C4=CCC(C(=O)N5CCC(N6CCCC6)CC5)CC4)cc3F)CC2)nc1 (stereo not drawn) [Example 298, (4-(4-((1-(5-ethylpyrimidin-2-yl)piperidin-4-yl)methoxy)-3-fluorophenyl)cyclohex-3-enyl)(4-(pyrrolidin-1-yl)piperidin-1-yl)methanone] |  | 150 nM |  | 
9 | CCc1cnc(N2CCC(COc3ccc(C4=CCC(C(=O)N5CCOCC5)CC4)cc3F)CC2)nc1 (stereo not drawn) [Example 299, (4-(4-((1-(5-ethylpyrimidin-2-yl)piperidin-4-yl)methoxy)-3-fluorophenyl)cyclohex-3-enyl)(morpholino)methanone] | ≤ 50 nM | 12 nM |  | 
10 | CCc1cnc(N2CCC(COc3ccc(C4=CCC(C(=O)N5CCSCC5)CC4)cc3F)CC2)nc1 (stereo not drawn) [Example 300, (4-(4-((1-(5-ethylpyrimidin-2-yl)piperidin-4-yl)methoxy)-3-fluorophenyl)cyclohex-3-enyl)(thiomorpholino)methanone] | ≤ 50 nM | 8.5 nM |  | 
11 | CCc1cnc(N2CCC(COc3ccc(C4=CCC(C(=O)N5CCC5)CC4)cc3F)CC2)nc1 (stereo not drawn) [Example 301, azetidin-1-yl(4-(4-((1-(5-ethylpyrimidin-2-yl)piperidin-4-yl)methoxy)-3-fluorophenyl)cyclohex-3-enyl)methanone] | ≤ 50 nM | 19 nM |  | 
12 | CCc1cnc(N2CCC(COc3ccc(C4=CCC(C(=O)NC5CC5)CC4)cc3F)CC2)nc1 (stereo not drawn) [Example 302, N-cyclopropyl-4-(4-((1-(5-ethylpyrimidin-2-yl)piperidin-4-yl)methoxy)-3-fluorophenyl)cyclohex-3-enecarboxamide] |  | 110 nM |  | 
13 | CCc1cnc(N2CCC(COc3ccc(C4=CCC(C(=O)NC5CCC5)CC4)cc3F)CC2)nc1 (stereo not drawn) [Example 303, N-cyclobutyl-4-(4-((1-(5-ethylpyrimidin-2-yl)piperidin-4-yl)methoxy)-3-fluorophenyl)cyclohex-3-enecarboxamide] | ≤ 50 nM | 29 nM |  | 
14 | CCc1cnc(N2CCC(COc3ccc(C4=CCC(C(=O)NC5CCCC5)CC4)cc3F)CC2)nc1 (stereo not drawn) [Example 304, N-cyclopentyl-4-(4-((1-(5-ethylpyrimidin-2-yl)piperidin-4-yl)methoxy)-3-fluorophenyl)cyclohex-3-enecarboxamide] | ≤ 50 nM | 20 nM |  | 
15 | CCc1cnc(N2CCC(COc3ccc(C4=CCC(C(=O)NC5CCCCC5)CC4)cc3F)CC2)nc1 (stereo not drawn) [Example 305, N-cyclohexyl-4-(4-((1-(5-ethylpyrimidin-2-yl)piperidin-4-yl)methoxy)-3-fluorophenyl)cyclohex-3-enecarboxamide] | ≤ 50 nM | 24 nM |  | 
16 | CCc1cnc(N2CCC(COc3ccc(C4=CCC(C(=O)N5CCC6(CC5)OCCO6)CC4)cc3F)CC2)nc1 (stereo not drawn) [Example 306, (4-(4-((1-(5-ethylpyrimidin-2-yl)piperidin-4-yl)methoxy)-3-fluorophenyl)cyclohex-3-enyl)(1,4-dioxa-8-azaspiro[4.5]decan-8-yl)methanone] |  |  | 8.9 nM | ≤ 50 nM
17 | CCc1cnc(N2CCC(COc3ccc(C4=CCC(C(=O)NCC(F)(F)F)CC4)cc3F)CC2)nc1 (stereo not drawn) [Example 307, 4-(4-((1-(5-ethylpyrimidin-2-yl)piperidin-4-yl)methoxy)-3-fluorophenyl)-N-(2,2,2-trifluoroethyl)cyclohex-3-enecarboxamide] |  | 88 nM |  | 
18 | CCc1cnc(N2CCC(COc3ccc(C4=CCC(C(=O)N5CCC(=O)CC5)CC4)cc3F)CC2)nc1 (stereo not drawn) [Example 308, 1-(4-(4-((1-(5-ethylpyrimidin-2-yl)piperidin-4-yl)methoxy)-3-fluorophenyl)cyclohex-3-enecarbonyl)piperidin-4-one] |  |  | 23 nM | ≤ 50 nM
19 | CCc1cnc(N2CCC(COc3ccc(C4=CCC(C(=O)N5CC(O)C5)CC4)cc3F)CC2)nc1 (stereo not drawn) [Example 309, (4-(4-((1-(5-ethylpyrimidin-2-yl)piperidin-4-yl)methoxy)-3-fluorophenyl)cyclohex-3-enyl)(3-hydroxyazetidin-1-yl)methanone] | ≤ 50 nM | 11 nM |  | 
20 | CC(C)(C)OC(=O)N1CCC(COc2ccc(C3=CCC(C(=O)N4CCC(O)CC4)CC3)nc2)CC1 (stereo not drawn) [Example 310, tert-butyl 4-((6-(4-(4-hydroxypiperidine-1-carbonyl)cyclohex-1-enyl)pyridin-3-yloxy)methyl)piperidine-1-carboxylate] | ≤ 50 nM | 33 nM |  | 
21 | CC(C)(C)OC(=O)N1CCC(COc2ccc(C3=CCC(C(=O)N4CCCCC4)CC3)nc2)CC1 (stereo not drawn) [Example 311, tert-butyl 4-((6-(4-(piperidine-1-carbonyl)cyclohex-1-enyl)pyridin-3-yloxy)methyl)piperidine-1-carboxylate] |  | 79 nM |  | 
22 | CC(C)(C)OC(=O)N1CCC(COc2ccc(C3=CCC(C(=O)N4CCCC4)CC3)nc2)CC1 (stereo not drawn) [Example 312, tert-butyl 4-((6-(4-(pyrrolidine-1-carbonyl)cyclohex-1-enyl)pyridin-3-yloxy)methyl)piperidine-1-carboxylate] |  | 120 nM |  | 
23 | CCc1cnc(N2CCC(COc3ccc(C4=CCC(C(=O)NCCO)CC4)cc3F)CC2)nc1 (stereo not drawn) [Example 313, 4-(4-((1-(5-ethylpyrimidin-2-yl)piperidin-4-yl)methoxy)-3-fluorophenyl)-N-(2-hydroxyethyl)cyclohex-3-enecarboxamide] |  | 120 nM |  | 
24 | CCc1cnc(N2CCC(COc3ccc(C4=CCC(C(=O)NCC(F)F)CC4)cc3F)CC2)nc1 (stereo not drawn) [Example 314, N-(2,2-difluoroethyl)-4-(4-((1-(5-ethylpyrimidin-2-yl)piperidin-4-yl)methoxy)-3-fluorophenyl)cyclohex-3-enecarboxamide] |  | 61 nM |  | 
25 | CC(C)c1noc(N2CCC(COc3ccc(C4=CCC(C(=O)N5CCCC5)CC4)cn3)CC2)n1 (stereo not drawn) [Example 315, (4-(6-((1-(3-isopropyl-1,2,4-oxadiazol-5-yl)piperidin-4-yl)methoxy)pyridin-3-yl)cyclohex-3-enyl)(pyrrolidin-1-yl)methanone] |  | 68 nM |  | 
26 | CC(C)c1noc(N2CCC(COc3ccc(C4=CCC(C(=O)N5CCCCC5)CC4)cn3)CC2)n1 (stereo not drawn) [Example 316, (4-(6-((1-(3-isopropyl-1,2,4-oxadiazol-5-yl)piperidin-4-yl)methoxy)pyridin-3-yl)cyclohex-3-enyl)(piperidin-1-yl)methanone] | ≤ 50 nM | 37 nM |  | 

Reference: patent US10723699B2 (Hyundai Pharm Co., Ltd., priority 2015, dated 2020)
